Molecular target: T1, FKBP51FK1 (Homo sapiens, UniProt Q13451)
T1 construct: FKBP51FK1
T1 sequence (Q13451 42-130 limits assumed): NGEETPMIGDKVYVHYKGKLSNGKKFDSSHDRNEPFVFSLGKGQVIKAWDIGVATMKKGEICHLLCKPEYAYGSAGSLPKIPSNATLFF
Assay: Binding affinities of exemplary compounds to FKBP51
Description: Binding to FKBP51 is an important prerequisite in order to allow degradation of FKBP51. Thus, the binding affinities of the newly synthesized molecules (table 1) were tested.

| Ki [nM] | Compound |
| --- | --- |
| 25 ± 6 | COc1ccc(CC[C@H](OC(=O)[C@H]2CCCCN2C(=O)[C@H](c2cc(OC)c(OC)c(OC)c2)C2CCCCC2)c2cccc(OCc3cn(CCOCC(=O)N[C@H](C(=O)N4C[C@H](O)C[C@H]4C(=O)NCc4ccc(-c5scnc5C)cc4)C(C)(C)C)nn3)c2)cc1OC (stereo in doubt) [MTQ199, (S)-(R)-3-(3,4-Dimethoxyphenyl)-1-(3-((1-(2-(2-(((S)-1-((2S,4R)-4-hydroxy-2-((4-(4-methylthiazol-5-yl)benzyl)carbamoyl)pyrrolidin-1-yl)-3,3-dimethyl-1-oxobutan-2-yl)amino)-2-oxoethoxy)ethyl)-1H-1,2,3-triazol-4-yl)methoxy)phenyl)propyl 1-((S)-2-cyclohexyl-2-(3,4,5-trimethoxyphenyl)acetyl)piperidine-2-carboxylate] |
| 32 ± 7 | C#CCOc1cccc([C@H](CCc2ccc(OC)c(OC)c2)OC(=O)[C@H]2CCCCN2C(=O)[C@H](c2cc(OC)c(OC)c(OC)c2)C2CCCCC2)c1 (stereo in doubt) [Molecule (9), (S)-(R)-3-(3,4-Dimethoxyphenyl)-1-(3-(prop-2-yn-1-yloxy)phenyl)propyl 1-((S)-2-cyclohexyl-2-(3,4,5-trimethoxyphenyl)acetyl)piperidine-2-carboxylate] |
| 23 ± 7 | COc1ccc(CC[C@H](OC(=O)[C@H]2CCCCN2C(=O)[C@H](c2cc(OC)c(OC)c(OC)c2)C2CCCCC2)c2cccc(OCc3cn(CCOCCOCCOCC(=O)N[C@H](C(=O)N4C[C@H](O)C[C@H]4C(=O)NCc4ccc(-c5scnc5C)cc4)C(C)(C)C)nn3)c2)cc1OC [MTQ201, (S)-(R)-3-(3,4-Dimethoxyphenyl)-1-(3-((1-((S)-13-((2S,4R)-4-hydroxy-2-((4-(4-methylthiazol-5-yl)benzyl)carbamoyl)pyrrolidine-1-carbonyl)-14,14-dimethyl-11-oxo-3,6,9-trioxa-12-azapentadecyl)-1H-1,2,3-triazol-4-yl)methoxy)phenyl)propyl 1-((S)-2-cyclohexyl-2-(3,4,5-trimethoxyphenyl)acetyl)piperidine-2-carboxylate] |
| 12 ± 3 | COc1ccc(CC[C@H](OC(=O)[C@H]2CCCCN2C(=O)[C@H](c2cc(OC)c(OC)c(OC)c2)C2CCCCC2)c2cccc(OCc3cn(CCOCCOCCOCCOCCOCC(=O)N[C@H](C(=O)N4C[C@H](O)C[C@H]4C(=O)NCc4ccc(-c5scnc5C)cc4)C(C)(C)C)nn3)c2)cc1OC [MTQ203, (S)-(R)-3-(3,4-Dimethoxyphenyl)-1-(3-((1-((S)-19-((2S,4R)-4-hydroxy-2-((4-(4-methylthiazol-5-yl)benzyl)carbamoyl)pyrrolidine-1-carbonyl)-20,20-dimethyl-17-oxo-3,6,9,12,15-pentaoxa-18-azahenicosyl)-1H-1,2,3-triazol-4-yl)methoxy)phenyl)propyl 1-((S)-2-cyclohexyl-2-(3,4,5-trimethoxyphenyl)acetyl)piperidine-2-carboxylate] |
| 16 ± 5 | COc1ccc(CC[C@@H](OC(=O)[C@@H]2CCCCN2C(=O)[C@H](c2cc(OC)c(OC)c(OC)c2)C2CCCCC2)c2cccc(OCc3cn(CCOCCOCC(=O)Nc4cccc5c4C(=O)N(C4CCC(=O)NC4=O)C5=O)nn3)c2)cc1OC (stereo partly drawn) [MTQ205, (2S)-(1R)-3-(3,4-Dimethoxyphenyl)-1-(3-((1-(2-(2-(2-((2-(2,6-dioxopiperidin-3-yl)-1,3-dioxoisoindolin-4-yl)amino)-2-oxoethoxy)ethoxy)ethyl)-1H-1,2,3-triazol-4-yl)methoxy)phenyl)propyl 1-((S)-2-cyclohexyl-2-(3,4,5-trimethoxyphenyl)acetyl)piperidine-2-carboxylate] |
| 22 ± 6 | COc1ccc(CC[C@@H](OC(=O)[C@@H]2CCCCN2C(=O)[C@H](c2cc(OC)c(OC)c(OC)c2)C2CCCCC2)c2cccc(OCc3cn(CCOCCOCCOCC(=O)Nc4cccc5c4C(=O)N(C4CCC(=O)NC4=O)C5=O)nn3)c2)cc1OC (stereo partly drawn) [MTQ206, (2S)-(1R)-3-(3,4-Dimethoxyphenyl)-1-(3-((1-(2-(2-(2-(2-((2-(2,6-dioxopiperidin-3-yl)-1,3-dioxoisoindolin-4-yl)amino)-2-oxoethoxy)ethoxy)ethoxy)ethyl)-1H-1,2,3-triazol-4-yl)methoxy)phenyl)propyl 1-((S)-2-cyclohexyl-2-(3,4,5-trimethoxyphenyl)acetyl)piperidine-2-carboxylate] |
| 18 ± 4 | COc1ccc(CC[C@@H](OC(=O)[C@@H]2CCCCN2C(=O)[C@H](c2cc(OC)c(OC)c(OC)c2)C2CCCCC2)c2cccc(OCc3cn(CCOCCOCCOCCOCC(=O)Nc4cccc5c4C(=O)N(C4CCC(=O)NC4=O)C5=O)nn3)c2)cc1OC (stereo partly drawn) [MTQ207, (2S)-(1R)-3-(3,4-Dimethoxyphenyl)-1-(3-((1-(14-((2-(2,6-dioxopiperidin-3-yl)-1,3-dioxoisoindolin-4-yl)amino)-14-oxo-3,6,9,12-tetraoxatetradecyl)-1H-1,2,3-triazol-4-yl)methoxy)phenyl)propyl 1-((S)-2-cyclohexyl-2-(3,4,5-trimethoxyphenyl)acetyl)piperidine-2-carboxylate] |
| 5 ± 1 | COc1ccc(CC[C@@H](OC(=O)[C@@H]2CCCCN2C(=O)[C@H](c2cc(OC)c(OC)c(OC)c2)C2CCCCC2)c2cccc(OCc3cn(CCOCCOCCOCCOCCOCC(=O)Nc4cccc5c4C(=O)N(C4CCC(=O)NC4=O)C5=O)nn3)c2)cc1OC (stereo partly drawn) [MTQ208, (2S)-(1R)-3-(3,4-Dimethoxyphenyl)-1-(3-((1-(17-((2-(2,6-dioxopiperidin-3-yl)-1,3-dioxoisoindolin-4-yl)amino)-17-oxo-3,6,9,12,15-pentaoxaheptadecyl)-1H-1,2,3-triazol-4-yl)methoxy)phenyl)propyl 1-((S)-2-cyclohexyl-2-(3,4,5-trimethoxyphenyl)acetyl)piperidine-2-carboxylate] |
| 47 ± 19 | COc1cccc([C@H](CCc2ccc(OCc3cn(CCOCC(=O)N[C@H](C(=O)N4C[C@H](O)C[C@H]4C(=O)NCc4ccc(-c5scnc5C)cc4)C(C)(C)C)nn3)c(OC)c2)OC(=O)[C@H]2CCCCN2C(=O)[C@H](c2cc(OC)c(OC)c(OC)c2)C2CCCCC2)c1 [MTQ328, (S)-(R)-3-(4-((1-(2-(2-(((S)-1-((2S,4R)-4-Hydroxy-2-((4-(4-methylthiazol-5-yl)benzyl)carbamoyl)pyrrolidin-1-yl)-3,3-dimethyl-1-oxobutan-2-yl)amino)-2-oxoethoxy)ethyl)-1H-1,2,3-triazol-4-yl)methoxy)-3-methoxyphenyl)-1-(3-methoxyphenyl)propyl 1-((S)-2-cyclohexyl-2-(3,4,5-trimethoxyphenyl)acetyl)piperidine-2-carboxylate] |
| 60 ± 16 | COc1cccc([C@H](CCc2ccc(OCc3cn(CCOCCOCC(=O)N[C@H](C(=O)N4C[C@H](O)C[C@H]4C(=O)NCc4ccc(-c5scnc5C)cc4)C(C)(C)C)nn3)c(OC)c2)OC(=O)[C@H]2CCCCN2C(=O)[C@H](c2cc(OC)c(OC)c(OC)c2)C2CCCCC2)c1 [MTQ329, (S)-(R)-3-(4-((1-(2-(2-(2-(((S)-1-((2S,4R)-4-Hydroxy-2-((4-(4-methylthiazol-5-yl)benzyl)carbamoyl)pyrrolidin-1-yl)-3,3-dimethyl-1-oxobutan-2-yl)amino)-2-oxoethoxy)ethoxy)ethyl)-1H-1,2,3-triazol-4-yl)methoxy)-3-methoxyphenyl)-1-(3-methoxyphenyl)propyl 1-((S)-2-cyclohexyl-2-(3,4,5-trimethoxyphenyl)acetyl)piperidine-2-carboxylate] |
| 86 ± 26 | COc1cccc([C@H](CCc2ccc(OCc3cn(CCOCCOCCOCC(=O)N[C@H](C(=O)N4C[C@H](O)C[C@H]4C(=O)NCc4ccc(-c5scnc5C)cc4)C(C)(C)C)nn3)c(OC)c2)OC(=O)[C@H]2CCCCN2C(=O)[C@H](c2cc(OC)c(OC)c(OC)c2)C2CCCCC2)c1 [MTQ330, (S)-(R)-3-(4-((1-((S)-13-((2S,4R)-4-Hydroxy-2-((4-(4-methylthiazol-5-yl)benzyl)carbamoyl)pyrrolidine-1-carbonyl)-14,14-dimethyl-11-oxo-3,6,9-trioxa-12-azapentadecyl)-1H-1,2,3-triazol-4-yl)methoxy)-3-methoxyphenyl)-1-(3-methoxyphenyl)propyl 1-((S)-2-cyclohexyl-2-(3,4,5-trimethoxyphenyl)acetyl)piperidine-2-carboxylate] |

| Compound | Ki [nM] |
| --- | --- |
| C#CCOc1cc(CCC(OC(=O)C2CCCCN2C(=O)[C@H](c2cc(OC)c(OC)c(OC)c2)C2CCCCC2)c2cccc(OC)c2)ccc1OC (stereo in doubt) [Molecule (10), (S)-(R)-3-(4-methoxy-3-(prop-2-yn-1-yloxy)phenyl)-1-(3-methoxyphenyl)propyl 1-((S)-2-cyclohexyl-2-(3,4,5-trimethoxyphenyl)acetyl)piperidine-2-carboxylate] | 149 ± 39 |
| COc1ccc(CC[C@@H](OC(=O)[C@@H]2CCCCN2C(=O)[C@H](c2cc(OC)c(OC)c(OC)c2)C2CCCCC2)c2cccc(OCc3cn(CCOCCOCC(=O)N[C@H](C(=O)N4C[C@H](O)C[C@H]4C(=O)NCc4ccc(-c5scnc5C)cc4)C(C)(C)C)nn3)c2)cc1OC [MTQ200] | 24 ± 7 |
| COc1ccc(CC[C@@H](OC(=O)[C@@H]2CCCCN2C(=O)[C@H](c2cc(OC)c(OC)c(OC)c2)C2CCCCC2)c2cccc(OCc3cn(CCOCC(=O)Nc4cccc5c4C(=O)N(C4CCC(=O)NC4=O)C5=O)nn3)c2)cc1OC (stereo partly drawn) [MTQ204, (25)-(1R)-3-(3,4-Dimethoxyphenyl)-1-(3-((1-(2-(2-((2-(2,6-dioxopiperidin-3-yl)-1,3-dioxoisoindolin-4-yl)amino)-2-oxoethoxy)ethyl)-1H-1,2,3-triazol-4-yl)methoxy)phenyl)propyl1-((S)-2-cyclohexyl-2-(3,4,5-trimethoxyphenyl)acetyl)piperidine-2-carboxylate] | 19 ± 5 |

— patent publication EP3875456A1, “HETERO-BIFUNCTIONAL PROTEOLYSIS-TARGETING CHIMERAS (PROTACS) FOR THE SELECTIVE DEGRADATION OF FK506-BINDING PROTEINS (FKBPS)” (Technische Universität Darmstadt, priority 2020, dated 2021)
